Active and inactive are the calls of the source. The rule behind the calls is not given here.
Test system: rodent carcinogenicity bioassays, tumor incidence
Assay: CCRIS carcinogenicity studies
Method in brief: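 Archive of carcinogenicity, mutagenicity, tumor promotion and tumor inhibition results drawn from journals, NCI reports and other sources, expert-reviewed; covers 1985-2011 and is no longer updated.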

SMILES: N=C1C=CC(=C(c2ccc(N)cc2)c2ccc(N)cc2)C=C1
- carcinogen call (Species: MOUSE, Strain/Sex: B6C3F1/FEMALE, Route: ORAL, Dose: 0, 500, 1000 PPM IN DIET FOR 103 WK (STUDY DURATION: 110-113 WK), Dose: 0, 500, 1000 PPM IN DIET FOR 103 WK (STUDY DURATION: 110-113 WK), Tumor Site: Type of Lesion: LUNG: ALVEOLAR/BRONCHIOLAR ADENOMA, ALVEOLAR/BRONCHIOLAR ADENOMA OR CARCINOMA;LIVER: HEPATOCELLULAR ADENOMA, HEPATOCELLU): active; positive
- carcinogen call (Species: MOUSE, Strain/Sex: B6C3F1/MALE, Route: ORAL, Dose: 0, 500, 1000 PPM IN DIET FOR 103 WK (STUDY DURATION: 113-115 WK), Dose: 0, 500, 1000 PPM IN DIET FOR 103 WK (STUDY DURATION: 113-115 WK), Tumor Site: Type of Lesion: LIVER: HEPATOCELLULAR CARCINOMA, HEPATOCELLULAR ADENOMA OR CARCINOMA): active; positive
- carcinogen call (Species: RAT, Strain/Sex: F344/FEMALE, Route: ORAL, Dose: 0, 500, 1000 PPM IN DIET FOR 103 WK (STUDY DURATION: 110-113 WK), Dose: 0, 500, 1000 PPM IN DIET FOR 103 WK (STUDY DURATION: 110-113 WK), Tumor Site: Type of Lesion: INTEGUMENTARY SYSTEM (SUBCUTANEOUS TISSUE): FIBROMA, FIBROMA OR FIBROSARCOMA, FIBROMA OR SARCOMA OR FIBROSARCOMA, MAMMAR): active; positive
- carcinogen call (Species: RAT, Strain/Sex: F344/MALE, Route: ORAL, Dose: 0, 1000, 2000 PPM IN DIET FOR 103 WK (STUDY DURATION: 110-113 WK), Dose: 0, 1000, 2000 PPM IN DIET FOR 103 WK (STUDY DURATION: 110-113 WK), Tumor Site: Type of Lesion: INTEGUMENTARY SYSTEM (SKIN): SQUAMOUS CELL CARCINOMA, SQUAMOUS CELL PAPILLOMA OR CARCINOMA, TRICHOEPITHELIOMA, SEBACEOUS): active; positive
- carcinogen call (Species: RAT, Strain/Sex: SPRAGUE-DAWLEY/FEMALE, Route: GAVAGE, Dose: 0, 300 MG/KG BW 2/WK FOR 18 WK WITH A 1 WK REST AFTER 12 WK THEN STARTING AT 19 WK 150 MG/KG BW 2/WK FOR DURATION OF STU): inactive; negative
- carcinogen call (Species: RAT, Strain/Sex: SPRAGUE-DAWLEY/MALE, Route: GAVAGE, Dose: 0, 300 MG/KG BW 2/WK FOR 18 WK WITH A 1 WK REST AFTER 12 WK THEN STARTING AT 19 WK 150 MG/KG BW 2/WK FOR DURATION OF STU): inactive; negative

SMILES: CCSCCC(N)C(=O)O (stereo not drawn)
- carcinogen call (Species: RAT, Strain/Sex: F344/MALE, Route: ORAL, Dose: 0, 0.05% IN METHYL-DEFICIENT DIET FOR 8 MO, STUDY DURATION: 20 MO, Dose: 0, 0.05% IN METHYL-DEFICIENT DIET FOR 8 MO, STUDY DURATION: 20 MO, Tumor Site: Type of Lesion: LIVER: HEPATOCELLULAR CARCINOMA): active; positive
- carcinogen call (Species: RAT, Strain/Sex: F344/MALE, Route: ORAL, Dose: 0.25% IN DIET FOR 24 WK, Tumor Site: Type of Lesion: LIVER): active; positive
- carcinogen call (Species: RAT, Strain/Sex: OSBORNE-MENDEL/MALE,FEMALE, Route: ORAL, Dose: 0.25% IN BASAL DIET FOR 8-9 MO, Tumor Site: Type of Lesion: LIVER: CARCINOMA): active; positive
- carcinogen call (Species: RAT, Strain/Sex: SPRAGUE-DAWLEY, Route: ORAL, Dose: 0.25% IN DIET FOR 8 MO, Tumor Site: Type of Lesion: LIVER: CARCINOMA): active; positive
- carcinogen call (Species: RAT, Strain/Sex: WISTAR/MALE,FEMALE, Route: ORAL, Dose: 0.25% IN BASAL DIET FOR 8 MO THEN STOCK DIET FOR 2 MO, Tumor Site: Type of Lesion: LIVER: CARCINOMA): active; positive

SMILES: O=C1C(c2[nH]c3ccc(S(=O)(=O)O)cc3c2O)=Nc2ccc(S(=O)(=O)O)cc21
- carcinogen call (Species: DOG, Strain/Sex: BEAGLE/MALE, FEMALE, Route: ORAL, Dose: 0, 1, 2% IN DIET FOR 2 YR, Dose: 0, 1, 2% IN DIET FOR 2 YR): inactive; negative
- carcinogen call (Species: MOUSE, Strain/Sex: C3H AND C57/MALE, FEMALE, Route: SUBCUTANEOUS, Dose: 0, 2.5 MG AS A 1% AQUEOUS SOLUTION 1/WK FOR 2 YR): inactive; negative
- carcinogen call (Species: MOUSE, Strain/Sex: CD-1/FEMALE, Route: ORAL, Dose: 0, 0.5, 1.5, 5% IN DIET FOR 23 MO (STUDY DURATION: 24 MO), Dose: 0, 0.5, 1.5, 5% IN DIET FOR 23 MO (STUDY DURATION: 24 MO)): inactive; negative
- carcinogen call (Species: MOUSE, Strain/Sex: CD-1/MALE, Route: ORAL, Dose: 0, 0.5, 1.5, 5% IN DIET FOR 22 MO (STUDY DURATION: 24 MO), Dose: 0, 0.5, 1.5, 5% IN DIET FOR 22 MO (STUDY DURATION: 24 MO)): inactive; negative
- carcinogen call (Species: RAT, Strain/Sex: OSBORNE-MENDEL/MALE, FEMALE, Route: ORAL, Dose: 0, 0.5, 1.0, 2.0, 5.0% IN DIET FOR 2 YR, Dose: 0, 0.5, 1.0, 2.0, 5.0% IN DIET FOR 2 YR): inactive; negative
- carcinogen call (Species: RAT, Strain/Sex: OSBORNE-MENDEL/MALE, FEMALE, Route: SUBCUTANEOUS, Dose: 0, 20 MG AS A 2% AQUEOUS SOLUTION 1/WK FOR 2 YR, Tumor Site: Type of Lesion: INJECTION SITE: FIBROSARCOMA): active; positive
- carcinogen call (Species: RAT, Strain/Sex: STRAIN-CD/FEMALE, Route: ORAL, Dose: 0, 0.5, 1, 2% IN DIET FOR 30 MO TO ANIMALS ALSO EXPOSED IN UTERO THROUGH THE SAME DOSES ADMINISTERED TO PARENTS BEGINNIN, Dose: 0, 0.5, 1, 2% IN DIET FOR 30 MO TO ANIMALS ALSO EXPOSED IN UTERO THROUGH THE SAME DOSES ADMINISTERED TO PARENTS BEGINNIN): inactive; negative
- carcinogen call (Species: RAT, Strain/Sex: STRAIN-CD/MALE, Route: ORAL, Dose: 0, 0.5, 1, 2% IN DIET FOR 29 MO TO ANIMALS ALSO EXPOSED IN UTERO THROUGH THE SAME DOSES ADMINISTERED TO PARENTS BEGINNIN, Dose: 0, 0.5, 1, 2% IN DIET FOR 29 MO TO ANIMALS ALSO EXPOSED IN UTERO THROUGH THE SAME DOSES ADMINISTERED TO PARENTS BEGINNIN): inactive; negative

SMILES: CCCCN(C)N=O
- carcinogen call (Species: HAMSTER, Strain/Sex: SYRIAN/FEMALE, Route: GAVAGE, Dose: 0, 2.5, 5 MG/KG 1/WK FOR 23-30 WK (TOTAL DOSE: 0; 0.65; 1.0 MMOL) (STUDY DURATION: LIFETIME), Dose: 0, 2.5, 5 MG/KG 1/WK FOR 23-30 WK (TOTAL DOSE: 0; 0.65; 1.0 MMOL) (STUDY DURATION: LIFETIME), Tumor Site: Type of Lesion: LIVER: HEPATOCELLULAR ADENOMA, LUNG: ALVEOLAR/BRONCHIAL ADENOMA, NASAL MUCOSA: CARCINOMA, ADENOMA, FORESTOMACH: SQUAMOUS, Tumor Site: Type of Lesion: LIVER: HEPATOCELLULAR ADENOMA, LUNG: ALVEOLAR/BRONCHIAL ADENOMA, NASAL MUCOSA: CARCINOMA, ADENOMA, FORESTOMACH: SQUAMOUS): active; positive
- carcinogen call (Species: HAMSTER, Strain/Sex: SYRIAN/MALE, Route: GAVAGE, Dose: 0, 2.5, 5 MG/KG 1/WK FOR 23-30 WK (TOTAL DOSE: 0; 0.65; 1.0 MMOL) (STUDY DURATION: LIFETIME), Dose: 0, 2.5, 5 MG/KG 1/WK FOR 23-30 WK (TOTAL DOSE: 0; 0.65; 1.0 MMOL) (STUDY DURATION: LIFETIME), Tumor Site: Type of Lesion: LIVER: HEPATOCELLULAR ADENOMA, HEMANGIOSARCOMA, LUNG: ALVEOLAR/BRONCHIAL ADENOMA, NASAL MUCOSA: CARCINOMA, ADENOMA, FORE, Tumor Site: Type of Lesion: LIVER: HEPATOCELLULAR ADENOMA, HEMANGIOSARCOMA, LUNG: ALVEOLAR/BRONCHIAL ADENOMA, NASAL MUCOSA: CARCINOMA, ADENOMA, FORE): active; positive
- carcinogen call (Species: RAT, Strain/Sex: F344/FEMALE, Route: INTRAVESICULAR, Dose: 0, 3 MG IN 0.2 ML ETHANOL: DEIONIZED WATER (1:3) 2/WK FOR 17 WK (TOTAL DOSE 0.9 MMOL) (STUDY DURATION: LIFESPAN), Tumor Site: Type of Lesion: ESOPHAGUS: TUMOR, LIVER: HEMANGIOSARCOMA): active; positive

SMILES: C/C=C1/C[C@@H](C)[C@@](C)(O)C(=O)OC/C2=C/CN(C)CC[C@@H](OC1=O)C2=O
- carcinogen call (Species: RAT, Strain/Sex: ACI/MALE, Route: INTRAPERITONEAL, Dose: 22 MG/KG IN SALINE 2/WK FOR 4 WK, THEN 1/WK FOR 52 WK, Tumor Site: Type of Lesion: LIVER: ADENOMA): active; positive

Source: PubChem BioAssay AID1259411 (Chemical Carcinogenesis Research Information System (CCRIS), 2018)
